Measurements: the NIST ThermoML archive (doi:10.1021/je400539h)

Assay: xn = mol fraction of the nth substance listed
Details: 101 kPa, Liquid

C1COCCO1 [1,4-dioxane] + CCCCCCOC(C)=O
x2 = 0
Details	mass density [kg/m3]	speed of sound [m/s]	viscosity [mPa·s]
298.15 K	1028.2	1328	1.159
303.15 K	1022.7	1320	1.087
308.15 K	1017.4	1312	1.013
313.15 K	1011.1	1304	0.934

C=COCCCC [1-(ethenyloxy)butane] + CCCCCCOC(C)=O
Details	mass density [kg/m3]	speed of sound [m/s]	viscosity [mPa·s]
298.15 K, x2 = 0	780.2	1096	0.4
298.15 K, x2 = 0.0806	790.9	1100	0.44
298.15 K, x2 = 0.1668	801.3	1104	0.486
298.15 K, x2 = 0.2521	810.8	1112	0.538
298.15 K, x2 = 0.3443	820.3	1120	0.596
298.15 K, x2 = 0.4384	829.2	1128	0.657
298.15 K, x2 = 0.5392	838.1	1144	0.726
298.15 K, x2 = 0.644	846.6	1160	0.798
298.15 K, x2 = 0.7555	854.7	1180	0.879
298.15 K, x2 = 0.8741	862.1	1204	0.965
303.15 K, x2 = 0	774.1	1084	0.387
303.15 K, x2 = 0.0806	784.6	1088	0.423
303.15 K, x2 = 0.1668	795.1	1088	0.465
303.15 K, x2 = 0.2521	804.8	1096	0.508
303.15 K, x2 = 0.3443	814.5	1104	0.559
303.15 K, x2 = 0.4384	823.7	1112	0.615
303.15 K, x2 = 0.5392	832.8	1124	0.675
303.15 K, x2 = 0.644	841.3	1140	0.739
303.15 K, x2 = 0.7555	849.5	1160	0.812
303.15 K, x2 = 0.8741	857.1	1184	0.891
308.15 K, x2 = 0	768.2	1072	0.365
308.15 K, x2 = 0.0806	778.6	1072	0.398
308.15 K, x2 = 0.1668	789.1	1072	0.434
308.15 K, x2 = 0.2521	798.8	1076	0.474
308.15 K, x2 = 0.3443	808.7	1084	0.52
308.15 K, x2 = 0.4384	818.1	1092	0.567
308.15 K, x2 = 0.5392	827.4	1104	0.622
308.15 K, x2 = 0.644	836.3	1120	0.681
308.15 K, x2 = 0.7555	844.8	1140	0.745
308.15 K, x2 = 0.8741	852.7	1164	0.817
313.15 K, x2 = 0	763.3	1060	0.354
313.15 K, x2 = 0.0806	773.6	1056	0.385
313.15 K, x2 = 0.1668	784	1056	0.418
313.15 K, x2 = 0.2521	793.7	1060	0.454
313.15 K, x2 = 0.3443	803.6	1064	0.496
313.15 K, x2 = 0.4384	813	1072	0.538
313.15 K, x2 = 0.5392	822.3	1084	0.588
313.15 K, x2 = 0.644	831.2	1100	0.641
313.15 K, x2 = 0.7555	839.7	1120	0.7
313.15 K, x2 = 0.8741	847.7	1144	0.763

COc1ccccc1 [anisole] + CCCCCCOC(C)=O
x2 = 0
Details	mass density [kg/m3]	speed of sound [m/s]	viscosity [mPa·s]
298.15 K	993.6	1396	0.97
303.15 K	989.4	1380	0.917
308.15 K	984.6	1364	0.863
313.15 K	980	1348	0.803
